From US9040526B2, “Benzylpyrrolidinone derivatives as modulators of chemokine receptor activity” (Bristol-Myers Squibb Company, priority 2010, dated 2015)

target: T1, CCR2 receptor (Homo sapiens, UniProt P41597); experiment: THP-1 monocytic cell binding: whole cell-based radioligand competition assay (125I-human MCP-1); details: THP-1 cells expressing endogenous CCR2; 125I-MCP-1 tracer 0.2 nM; n = 1 unless otherwise noted
T1 construct: THP-1 human monocytic leukemic cell line, which expresses endogenous CCR2; endogenous in cells; host or cells: THP-1 human monocytic leukemic cell line (whole cells)
T1 sequence (P41597 1-360 isoform P41597-2): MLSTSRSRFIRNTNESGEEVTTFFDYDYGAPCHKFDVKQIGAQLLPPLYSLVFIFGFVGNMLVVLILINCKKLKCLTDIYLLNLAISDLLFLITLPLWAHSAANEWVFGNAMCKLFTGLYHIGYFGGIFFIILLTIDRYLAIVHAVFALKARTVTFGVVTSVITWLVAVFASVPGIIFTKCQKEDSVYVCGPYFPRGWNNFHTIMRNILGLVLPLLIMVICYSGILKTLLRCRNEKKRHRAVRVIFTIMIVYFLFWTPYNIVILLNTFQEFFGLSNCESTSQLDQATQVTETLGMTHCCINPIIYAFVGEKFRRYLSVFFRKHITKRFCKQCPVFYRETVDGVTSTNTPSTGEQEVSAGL
Description: THP-1 Monocytic Cell Binding: Whole Cell-Based Assay
The human CCR2 binding assay was also established with the THP-1 human monocytic leukemic cell line, which expresses endogenous CCR2, using ^125I-human MCP-1 as the tracer ligand. Radioligand competition binding assays were used for assessment of binding affinity of test compounds to the CCR2 receptor. For radioligand competition studies, 100 μl containing 2.5×10^5 THP-1 cells/well (in assay buffer containing 50 mM HEPES, pH7.4, 5 mM MgCl2, 1 mM CaCl2 and 0.5% BSA) were added to 96-well assay plates containing the test compounds in 3-fold serial dilution, with final concentrations ranging from 5 μM to 100 pM. Subsequently, 50 μl ^125I-MCP-1 radioligand at a final concentration of 0.2 nM in assay buffer were added to the reaction. After a 90 minute incubation period at room temperature, the binding reaction was terminated by harvesting on GF/B filter plates (PerkinElmer Cat. No. 6005177) followed by washing with ice-cold wash buffer (50 mM HEPES, pH 7.4, 0.1% BSA, 0.5 M NaCl) to remove unbound ligand. After washing, the plate was dried for 45 minutes at 60° C. followed by addition of 40 μl MicroScint 20 scintillation fluid, sealed and analyzed by the Packard TopCount reader. Non-specific binding was determined in the presence of 10 μM (a molar excess of 5000 fold) of an in-house CCR2 small molecule antagonist (CCR2 IC50=2 nM). Specific binding of ^125I-MCP-1 was calculated as the difference between total and non-specific binding. The competition data was plotted as a percentage inhibition of radioligand specific bound in the absence of test compound (percent of total signal). After correcting for non-specific binding, IC50 values were determined. The IC50 is defined as the concentration of test compound required to reduce ^125-MCP-1 specific binding by 50% and was calculated using the four parameter logistic equation to fit the normalized data.
Compounds of the present invention were tested in the THP-1 monocytic binding assay described above and the results shown in Table 3 below were obtained.

| SMILES | Ki [µM] |
| --- | --- |
| CC(C)C1(CCN2CCC(Cc3ccccc3)CC2)CC2Oc3ccc(C(F)(F)F)cc3CN2C1=O (stereo not shown) [Example 3n, 2-(2-(4-benzylpiperidin-1-yl)ethyl)-2-isopropyl-7-(trifluoromethyl)-2,3,3a,9-tetrahydro-1H-benzo[e] pyrrolo[2,1-b][1,3]oxazin-1-one] | 1.49 |
| CC(C)C1(CCN2CCC(n3c(=O)[nH]c4ccccc43)CC2)CC2Oc3ccc(C(F)(F)F)cc3CN2C1=O (stereo not shown) [Example 3j, 2-isopropyl-2-(2-(4-(2-oxo-2,3-dihydro-1H-benzo[d]imidazol-1-yl)piperidin-1-yl)ethyl)-7-(trifluoromethyl)-2,3,3a,9-tetrahydro-1H-benzo[e]pyrrolo[2,1-b][1,3] oxazin-1-one] | 1.28 |
| CC(C)C1(CCN2CCC3(C=Cc4ccccc43)CC2)CC2Oc3ccc(C(F)(F)F)cc3CN2C1=O (single isomer, unassigned) [3f, diastereomer 2] | 0.011 |
| CC(C)C1(CCN2CCC(c3ccccc3)C2)CC2Oc3ccc(C(F)(F)F)cc3CN2C1=O (stereo not shown) [Example 3p, 2-isopropyl-2-(2-(3-phenylpyrrolidin-1-yl)ethyl)-7-(trifluoromethyl)-2,3,3a,9-tetrahydro-1H-benzo[e] pyrrolo[2,1-b][1,3] oxazin-1-one] | 0.023 |
| CC(C)C1(CCN2CCC(O)(c3ccccc3)CC2)CC2Oc3ccc(C(F)(F)F)cc3CN2C1=O (stereo not shown) [Example 3m, 2-(2-(4-hydroxy-4-phenylpiperidin-1-yl)ethyl)-2-isopropyl-7-(trifluoromethyl)-2,3,3a,9-tetrahydro-1H-benzo[e]pyrrolo[2,1-b][1,3]oxazin-1-one] | 0.153 |
| CC(C)C1(CCN2CC[C@@]3(C=Cc4ccccc43)[C@@H](C)C2)CCN(Cc2cc(C(F)(F)F)cc(C(F)(F)F)c2)C1=O (stereo partly drawn) [Example 1c, 1-(3,5-bis(trifluoromethyl)benzyl)-3-isopropyl-3-(2-((1R,3′R)-3′-methylspiro[indene-1,4′-piperidine]-1′-yl)ethyl) pyrrolidin-2-one] | 0.736 |
| CC(C)C1(CCCN2CCC(c3ccccc3)CC2)CCN(Cc2cc(C(F)(F)F)cc(C(F)(F)F)c2)C1=O (stereo not shown) [Example 2a, 1-(3,5-bis(trifluoromethyl)benzyl)-3-isopropyl-3-(3-(4-phenylpiperidin-1-yl)propyl)pyrrolidin-2-one] | 3.51 |
| CC(C)C1(CCN2CCC(c3ccccc3)CC2)CC2Oc3ccc(C(F)(F)F)cc3CN2C1=O (single isomer, unassigned) [3b, diastereomer 1] | 0.934 |
| CC(C)C1(CCNC2CCC(O)CC2)CC2Oc3ccc(C(F)(F)F)cc3CN2C1=O (mixture of isomers) [Example 3i, 2-(2-((1r,4r)-4-hydroxycyclohexylamino)ethyl)-2-isopropyl-7-(trifluoromethyl)-2,3,3a,9-tetrahydro-1H-benzo[e] pyrrolo[2,1-b][1,3]oxazin-1-one] | 0.639 |
| CC(C)C1(CCN2CCN(C)CC2)CC2Oc3ccc(C(F)(F)F)cc3CN2C1=O (stereo not shown) [Example 3l, 2-isopropyl-2-(2-(4-methylpiperazin-1-yl)ethyl)-7-(trifluoromethyl)-2,3,3a,9-tetrahydro-1H-benzo[e]pyrrolo[2,1-b][1,3]oxazin-1-one] | 7.91 |
| CC(C)C1(CCNC2CCOCC2)CC2Oc3ccc(C(F)(F)F)cc3CN2C1=O (single isomer, unassigned) [3h, diastereomer 2] | 0.495 |

Continued, values first:

| Ki [µM] | SMILES |
| --- | --- |
| 2.61 | CC(C)C1(CCN2CCC(c3cccc(C(=O)O)c3)CC2)CC2Oc3ccc(C(F)(F)F)cc3CN2C1=O (stereo not shown) [Example 3c, 3-(1-(2-(2-isopropyl-1-oxo-7-(trifluoromethyl)-2,3,3a,9-tetrahydro-1H-benzo[e]pyrrolo[2,1-b][1,3]oxazin-2-yl)ethyl)piperidin-4-yl)benzoic acid] |
| 3.89 | CC(C)C1(CCN2CCc3ccccc3C2)CC2Oc3ccc(C(F)(F)F)cc3CN2C1=O (stereo not shown) [Example 3o, 2-(2-(3,4-dihydroisoquinolin-2(1H)-yl)ethyl)-2-isopropyl-7-(trifluoromethyl)-2,3,3a,9-tetrahydro-1H-benzo[e] pyrrolo[2,1-b][1,3]oxazin-1-one] |
| 2.54 | CC(C)C1(CCNC(C)(C)C)CC2Oc3ccc(C(F)(F)F)cc3CN2C1=O (stereo not shown) [Example 3a, 2-(2-(tert-butylamino)ethyl)-2-isopropyl-7-(trifluoromethyl)-2,3,3,a,9-tetrahydro-1H-benzo[e]pyrrolo[2,1-b][1,3]oxazin-1-one] |
| 0.0378 | CC(C)C1(CCN2CCC(c3ccccc3)CC2)CC2Oc3ccc(C(F)(F)F)cc3CN2C1=O (single isomer, unassigned) [3b, diastereomer 2] |
| 0.0454 | CC(C)C1(CCN2CCC3(C=Cc4ccccc43)CC2)CC2Oc3ccc(C(F)(F)F)cc3CN2C1=O (single isomer, unassigned) [3f, diastereomer 1] |
| 0.933 | CC(C)C1(CCN2CCC(c3ccccc3)CC2)CCN(Cc2cc(C(F)(F)F)cc(C(F)(F)F)c2)C1=O (stereo not shown) [Example 1b, 1-(3,5-bis(trifluoromethyl)benzyl)-3-isopropyl-3-(2-(4-phenylpiperidin-1-yl)ethyl)pyrrolidin-2-one] |
| 1.41 | CC(C)C1(CCN2CCN(c3ccc(F)cc3)CC2)CC2Oc3ccc(C(F)(F)F)cc3CN2C1=O (stereo not shown) [Example 3k, 2-(2-(4-(4-fluorophenyl)piperazin-1-yl)ethyl)-2-isopropyl-7-(trifluoromethyl)-2,3,3a,9-tetrahydro-1H-benzo[e]pyrrolo[2,1-b][1,3] oxazin-1-one] |
| 0.983 | CC(C)C1(CCN2CCCCC2)CCN(Cc2cc(C(F)(F)F)cc(C(F)(F)F)c2)C1=O (stereo not shown) [Example 1a, 1-(3,5-bis(trifluoromethyl)benzyl)-3-isopropyl-3-(2-(piperidin-1-yl)ethyl)pyrrolidin-2-one] |
